# Source: PubChem BioAssay AID1918956 (Molecular Pharmacology Branch, DTP, NCI, 2023)
# Test system: OVCAR-5 complex spheroids, viability
# Assay: Anticancer human tumor OVCAR-5 cell line growth inhibition;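 also: spheroids exposed to agents for seven days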;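 as to viability, T/C: 100% = DMSO vehicle control wells viability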
# Details: for IC50: curve of first compound; for viability, T/C: stronger effect = lower value
# Text: Multicellular complex tumor spheroid response to LSD1 Inhibitor Iadademstat in combination with a variety of drugs and investigational agents in selected tumor cell lines
# The current study was undertaken to assess response to LSD1 inhibitors in combination with standard-of-care drugs and investigational agents in solid tumor complex spheroid models as well as in the K-562 leukemia. Complex spheroids include a stromal component modeled by human endothelial cells (HUVEC) and fibroblasts modeled by human mesenchymal stem cells (MSCs). The concentration ranges selected for each drug and investigational agent were based upon clinically achievable concentrations if the clinical Cmax of the agent was known.
# Compounds. The drugs and investigational agents used in this study are listed on Table 1. All of the agents used, including staurosporine (NSC755774) and gemcitabine (NSC613327), were obtained from the Developmental Therapeutics Program, NCI. FDA-approved anticancer drugs are available from the NCI at http://dtp.nci.nih.gov/branches/dscb/oncology_drugset_explanation.html. Drugs and investigational agents were >95% pure by proton nuclear magnetic resonance (NMR) and liquid chromatography/mass spectrometry (LC/MS). Stock solutions were prepared at 400x in DMSO, stored at -70 degrees C, and diluted in fresh medium prior to their use. The final concentration of DMSO in cell culture wells never exceeded 0.25% (v/v). The FDA-approved anticancer drug set is available from the Developmental Therapeutics Program at https://dtp.cancer.gov/organization/dscb/obtaining/available_plates.htm. All drugs and investigational agents were tested over a range starting from a high concentration at or near the clinical Cmax and decreasing in half-log increments. If the clinical Cmax for an agent had not been determined, the highest concentration tested was 10 microM.
# Cell Lines. The patient-derived cancer cell (PDC) lines: 292921-168-R-J2-PDC, K24384-001-R-PDC, and 521955-158-R2-J5-PDC pancreatic carcinomas, 556581-035-R-J1 ovarian carcinoma, 324938-238-R-J1-PDC, 855422-203-R-J1-PDC and 883617-216-R-J1-PDC urothelial bladder carcinomas, 743489-274-T-PDC renal cell carcinoma, 138582-R-J1 Merkel cell tumor, K60290-347-R-J1 and K57222-313-R-J1-PDC glioblastomas, 653999-131-R-J2-PDC, LG0703-F948-PDC, and 349418-098-R-PDC non-small cell lung carcinomas, 885512-296-R-J2-PDC, 171881-019-R-J1-PDC breast carcinomas and 186277-243-T-J2-PDC and 233499-124-R-J2-PDC colon carcinomas were obtained from the NCI Patient-Derived Models Repository (PDMR, https://pdmr.cancer.gov). The established cell lines NCI/ADR-RES (RRID:CVCL_14520 and OVCAR-5 (RRID:CVCL_1628) ovarian carcinomas, 786-O (RRID:CVCL_1051) and A498 […] renal cell carcinoma, NCI-H211 (ATCC, cat. CRL-5824; RRID:CVCL_1529), NCI-H196 (ATCC, cat. CRL-5823, RRID:CVCL_1509), SW 1271 (ATCC, cat. CRL-2177, RRID:CVCL_1716) and NCI-H1876 (ATCC, cat. CRL-5902, RRID:CVCL_1503) small cell lung carcinomas, MDA-MB-231 (RRID:CVCL_0062) and MDA-MB-468 (RRID:CVCL_0419)breast carcinomas (10-12). Pooled donor human umbilical vein endothelial cells (HUVEC, Lonza, cat. CC-2519) and human mesenchymal stem cells (hMSC, Lonza, cat. PT-2501) were purchased from Lonza (Walkersville, MD).
# Cell Culture. All cells were maintained in an incubator at 37 degrees C and 5% CO2 with 95% humidity. The PDC lines were cultured according to standard operating procedures established by the NCI PDMR (https://pdmr.cancer.gov). Briefly all PDCs were thawed and cultured in Matrigel-coated flasks prepared with a working solution of 1X Ham's F-12 nutrient mix, without supplementation (Invitrogen, Waltham, MA, cat. 11765054), 100 U/mL penicillin-streptomycin (Invitrogen, cat. 15140122), and 2.5% Matrigel (Corning Inc., Corning, NY, cat. 354248) for the first three passages. […]
smiles,measurement,setting,value
CC[C@@]1(O)C(=O)OCc2c1cc1n(c2=O)Cc2cc3c(CN(C)C)c(O)ccc3nc2-1 + NC1CC1c1ccc(-c2cccc(O)c2)cc1,IC50,second compound 0.1 µM,3.05 nM
same,IC50,second compound 0.316 µM,3.4 nM
same,IC50,second compound 1 µM,2.31 nM
same,IC50,second compound 3.16 µM,2.27 nM
same,IC50,second compound 10 µM,2.32 nM
same,"viability, T/C","second compound 0.1 µM, first compound 0.000316 µM",96.1%
same,"viability, T/C","second compound 0.1 µM, first compound 0.001 µM",83.5%
same,"viability, T/C","second compound 0.1 µM, first compound 0.00316 µM",47.5%
same,"viability, T/C","second compound 0.1 µM, first compound 0.01 µM",32.3%
same,"viability, T/C","second compound 0.1 µM, first compound 0.0316 µM",35.6%
same,"viability, T/C","second compound 0.1 µM, first compound 0.1 µM",18.8%
same,"viability, T/C","second compound 0.316 µM, first compound 0.000316 µM",102%
same,"viability, T/C","second compound 0.316 µM, first compound 0.001 µM",87.3%
same,"viability, T/C","second compound 0.316 µM, first compound 0.00316 µM",48.9%
same,"viability, T/C","second compound 0.316 µM, first compound 0.01 µM",34.3%
same,"viability, T/C","second compound 0.316 µM, first compound 0.0316 µM",33%
same,"viability, T/C","second compound 0.316 µM, first compound 0.1 µM",19.8%
same,"viability, T/C","second compound 1 µM, first compound 0.000316 µM",101%
same,"viability, T/C","second compound 1 µM, first compound 0.001 µM",78.3%
same,"viability, T/C","second compound 1 µM, first compound 0.00316 µM",38.6%
same,"viability, T/C","second compound 1 µM, first compound 0.01 µM",30.5%
same,"viability, T/C","second compound 1 µM, first compound 0.0316 µM",34.4%
same,"viability, T/C","second compound 1 µM, first compound 0.1 µM",18.4%
same,"viability, T/C","second compound 3.16 µM, first compound 0.000316 µM",88.1%
same,"viability, T/C","second compound 3.16 µM, first compound 0.001 µM",78.8%
same,"viability, T/C","second compound 3.16 µM, first compound 0.00316 µM",37.9%
same,"viability, T/C","second compound 3.16 µM, first compound 0.01 µM",33.1%
same,"viability, T/C","second compound 3.16 µM, first compound 0.0316 µM",33.4%
same,"viability, T/C","second compound 3.16 µM, first compound 0.1 µM",18.7%
same,"viability, T/C","second compound 10 µM, first compound 0.000316 µM",93.3%
same,"viability, T/C","second compound 10 µM, first compound 0.001 µM",75.6%
same,"viability, T/C","second compound 10 µM, first compound 0.00316 µM",40.1%
same,"viability, T/C","second compound 10 µM, first compound 0.01 µM",31.8%
same,"viability, T/C","second compound 10 µM, first compound 0.0316 µM",37.7%
same,"viability, T/C","second compound 10 µM, first compound 0.1 µM",20.7%
